Experiment [1] addresses T1, human orexin-2 receptor (Homo sapiens (Human), UniProt O43614). Description: radioligand binding assay, orexin-2 receptor (membranes from CHO cells). Conditions: CHO cell membranes, read-out: hOX2 hKi. As for the experimental part:
(§1) The utility of the compounds in accordance with the present invention as orexin receptor OX1R and/or OX2R antagonists may be readily determined without undue experimentation by methodology well known in the art, including the “FLIPR Ca^2+ Flux Assay” (Okumura et al., Biochem. Biophys. Res. Comm. 280:976-981, 2001). In a typical experiment the OX1 and OX2 receptor antagonistic activity of the compounds of the present invention was determined in accordance with the following experimental method. For intracellular calcium measurements, Chinese hamster ovary (CHO) cells expressing the rat orexin-1 receptor or the human orexin-2 receptor, are grown in Iscove's modified DMEM containing 2 mM L-glutamine, […], 1% hypoxanthine-thymidine supplement, 100 U/ml penicillin, 100 ug/ml streptomycin and 10% heat-inactivated fetal calf serum (FCS). The cells are seeded at 20,000 cells/well into Becton-Dickinson black 384-well clear bottom sterile plates coated with poly-D-lysine. All reagents were from GIBCO-Invitrogen Corp. The seeded plates are incubated overnight at 37° C. and 5% CO2. Ala-6,12 human orexin-A as the agonist is prepared as a 1 mM stock solution in 1% bovine serum albumin (BSA) and diluted in assay buffer (HBSS containing 20 mM HEPES, 0.1% BSA and 2.5 mM probenecid, pH7.4) for use in the assay at a final concentration of 70 pM. Test compounds are prepared as 10 mM stock solution in DMSO, then diluted in 384-well plates, first in DMSO, then assay buffer. On the day of the assay, cells are washed 3 times with 100 ul assay buffer and then incubated for 60 min (37° C., 5% CO2) in 60 ul assay buffer containing 1 uM Fluo-4AM ester, 0.02% pluronic acid, and 1% BSA. The dye loading solution is then aspirated and cells are washed 3 times with 100 ul assay buffer. 30 ul of that same buffer is left in each well. Within the Fluorescent Imaging Plate Reader (FLIPR, Molecular Devices), test compounds are added to the plate in a volume of 25 ul, incubated for 5 min and finally 25 ul of agonist is added. Fluorescence is measured for each well at 1 second intervals for 5 minutes and the height of each fluorescence peak is compared to the height of the fluorescence peak induced by 70 pM Ala-6,12 orexin-A with buffer in place of antagonist. […] Alternatively, compound potency can be assessed by a radioligand binding assay (described in Bergman et. al. Bioorg. Med. Chem. Lett. 2008, 18, 1425-1430) in which the inhibition constant (Ki) is determined in membranes prepared from CHO cells expressing either the OX1 or OX2 receptor. The intrinsic orexin receptor antagonist activity of a compound which may be used in the present invention may be determined by these assays.

Experiment [2] has as its target T1, human orexin-2 receptor. The experiment can be described thus: FLIPR Ca2+ Flux Assay, CHO cells expressing human orexin-2 receptor. In kind it is cell-based. Conditions: 70 pM Ala-6,12 orexin-A agonist, read-out: hOX2R FLIPR IC50. As to the method:
as §1

The next experiment deals with OX1 receptor (hOX1) (Homo sapiens, UniProt O43613). Description: radioligand binding assay, orexin-1 receptor (membranes from CHO cells). Conditions: CHO cell membranes, read-out: hOX1 hKi. As for the experimental part:
In a typical experiment the OX1 and OX2 receptor antagonistic activity of the compounds of the present invention was determined in accordance with the following experimental method. For intracellular calcium measurements, Chinese hamster ovary (CHO) cells expressing the rat orexin-1 receptor or the human orexin-2 receptor, are grown in Iscove's modified DMEM containing 2 mM L-glutamine, […], 1% hypoxanthine-thymidine supplement, 100 U/ml penicillin, 100 ug/ml streptomycin and 10% heat-inactivated fetal calf serum (FCS). The cells are seeded at 20,000 cells/well into Becton-Dickinson black 384-well clear bottom sterile plates coated with poly-D-lysine. All reagents were from GIBCO-Invitrogen Corp. The seeded plates are incubated overnight at 37° C. and 5% CO2. Ala-6,12 human orexin-A as the agonist is prepared as a 1 mM stock solution in 1% bovine serum albumin (BSA) and diluted in assay buffer (HBSS containing 20 mM HEPES, 0.1% BSA and 2.5 mM probenecid, pH7.4) for use in the assay at a final concentration of 70 pM. Test compounds are prepared as 10 mM stock solution in DMSO, then diluted in 384-well plates, first in DMSO, then assay buffer. On the day of the assay, cells are washed 3 times with 100 ul assay buffer and then incubated for 60 min (37° C., 5% CO2) in 60 ul assay buffer containing 1 uM Fluo-4AM ester, 0.02% pluronic acid, and 1% BSA. The dye loading solution is then aspirated and cells are washed 3 times with 100 ul assay buffer. 30 ul of that same buffer is left in each well. Within the Fluorescent Imaging Plate Reader (FLIPR, Molecular Devices), test compounds are added to the plate in a volume of 25 ul, incubated for 5 min and finally 25 ul of agonist is added. Fluorescence is measured for each well at 1 second intervals for 5 minutes and the height of each fluorescence peak is compared to the height of the fluorescence peak induced by 70 pM Ala-6,12 orexin-A with buffer in place of antagonist. […] Alternatively, compound potency can be assessed by a radioligand binding assay (described in Bergman et. al. Bioorg. Med. Chem. Lett. 2008, 18, 1425-1430) in which the inhibition constant (Ki) is determined in membranes prepared from CHO cells expressing either the OX1 or OX2 receptor. The intrinsic orexin receptor antagonist activity of a compound which may be used in the present invention may be determined by these assays.

The next experiment deals with rat orexin-1 receptor (Rattus norvegicus (Rat), UniProt P56718). The experiment can be described thus: FLIPR Ca2+ Flux Assay, CHO cells expressing rat orexin-1 receptor.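 Note: concentration giving 50% inhibition of the agonist-induced calcium response.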 Conditions: 70 pM Ala-6,12 orexin-A agonist, read-out: hOX1R FLIPR IC50. Format: cell-based. As to the method:
as §1
For orientation: A change in cytosolic calcium serves as a functional read-out for many receptors and channels.

Structures are written as SMILES. A value given as a limit tells only on which side of the number the result lay.

rat orexin-1 receptor, sequence (P56718 whole entry): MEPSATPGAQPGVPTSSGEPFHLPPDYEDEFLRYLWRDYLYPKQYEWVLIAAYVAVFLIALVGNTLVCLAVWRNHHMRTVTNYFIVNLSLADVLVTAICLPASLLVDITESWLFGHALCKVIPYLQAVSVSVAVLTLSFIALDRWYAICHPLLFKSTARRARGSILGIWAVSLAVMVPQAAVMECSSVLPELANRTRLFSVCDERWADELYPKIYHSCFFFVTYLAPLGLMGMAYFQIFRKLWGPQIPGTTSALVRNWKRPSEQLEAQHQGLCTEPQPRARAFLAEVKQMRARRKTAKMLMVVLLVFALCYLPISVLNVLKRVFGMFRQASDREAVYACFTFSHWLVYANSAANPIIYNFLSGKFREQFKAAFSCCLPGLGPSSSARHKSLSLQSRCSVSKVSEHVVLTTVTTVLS
T1 sequence (O43614 whole entry): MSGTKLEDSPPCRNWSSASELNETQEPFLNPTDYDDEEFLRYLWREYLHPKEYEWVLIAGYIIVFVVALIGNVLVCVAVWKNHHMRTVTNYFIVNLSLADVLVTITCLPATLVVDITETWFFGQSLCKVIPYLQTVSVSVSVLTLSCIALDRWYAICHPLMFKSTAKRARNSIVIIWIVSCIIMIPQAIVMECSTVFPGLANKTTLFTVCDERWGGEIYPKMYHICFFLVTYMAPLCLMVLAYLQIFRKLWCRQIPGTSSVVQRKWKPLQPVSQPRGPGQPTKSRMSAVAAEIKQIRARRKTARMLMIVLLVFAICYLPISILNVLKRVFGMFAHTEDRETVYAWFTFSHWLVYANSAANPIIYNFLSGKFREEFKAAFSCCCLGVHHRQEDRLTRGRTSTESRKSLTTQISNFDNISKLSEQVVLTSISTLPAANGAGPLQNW

As to `Cc1ccc(C(=O)N2C[C@H](Oc3cc(C#N)ccn3)CC[C@H]2C)c(-n2nccn2)c1` [Example 9, 2-{[(3R,6R)-6-methyl-1-{[4-methyl-2-(2H-1,2,3-triazol-2-yl)phenyl]carbonyl}piperidin-3-yl]oxy}pyridine-4-carbonitrile], the Ki was determined as 3.7 nM on human orexin-2 receptor [1] and 1250 nM on OX1 receptor (hOX1). In addition, the IC50 amounted to 22 nM on human orexin-2 receptor [2] and 7150 nM at rat orexin-1 receptor.

Consider `C[C@@H]1CC[C@@H](Oc2cc(C#N)ccn2)CN1C(=O)c1cc(Br)ccc1-n1nccn1` [Example 15, 2-{[(3R,6R)-1-{[5-bromo-2-(2H-1,2,3-triazol-2-yl)phenyl]carbonyl}-6-methylpiperidin-3-yl]oxy}pyridine-4-carbonitrile], for which the figures for the Ki at human orexin-2 receptor [1] and at OX1 receptor (hOX1) were 9.1 nM and 265 nM, respectively. In addition, the IC50 at human orexin-2 receptor [2] came to 62 nM; on rat orexin-1 receptor, 1040 nM.

For `C[C@@H]1CC[C@@H](Oc2cc(C#N)ccn2)CN1C(=O)c1ccc(F)cc1-n1nccn1` [Example 8, 2-{[(3R,6R)-1-{[4-fluoro-2-(2H-1,2,3-triazol-2-yl)phenyl]carbonyl}-6-methylpiperidin-3-yl]oxy}pyridine-4-carbonitrile], the Ki at human orexin-2 receptor [1] is 3.5 nM; at OX1 receptor (hOX1), 2910 nM. In addition, the IC50 at human orexin-2 receptor [2] is 29 nM; on rat orexin-1 receptor it was above 10000 nM.

Turning to `C[C@@H]1CC[C@@H](Oc2cc(C#N)ccn2)CN1C(=O)c1sccc1-n1nccn1` [Example 14, 2-{[(3R,6R)-6-methyl-1-{[3-(2H-1,2,3-triazol-2-yl)thiophen-2-yl]carbonyl}piperidin-3-yl]oxy}pyridine-4-carbonitrile], the Ki at human orexin-2 receptor [1] worked out at 15 nM; on OX1 receptor (hOX1), 5340 nM. Moreover, the IC50 at human orexin-2 receptor [2] was 65 nM; on rat orexin-1 receptor, above 10000 nM.

With `C[C@@H]1CC[C@@H](Oc2cc(C#N)ccn2)CN1C(=O)c1sccc1-c1ncccn1` [Example 31], the Ki came out at 5.9 nM on human orexin-2 receptor [1] and 2720 nM at OX1 receptor (hOX1). The results for the IC50 at human orexin-2 receptor [2] and at rat orexin-1 receptor were 38 nM and above 10000 nM, respectively.

As to `C[C@@H]1CC[C@@H](Oc2cc(C#N)ccn2)CN1C(=O)c1cccc(F)c1-c1ncccn1` [Example 33, 2-({(3R,6R)-1-[(3-fluoro-2-pyrimidin-2-ylphenyl)carbonyl]-6-methylpiperidin-3-yl}oxy)pyridine-4-carbonitrile], the Ki at human orexin-2 receptor [1] was found to be 12.4 nM; on OX1 receptor (hOX1) it was 1690 nM. The IC50 on human orexin-2 receptor [2] was 52 nM; at rat orexin-1 receptor, above 10000 nM.

What is called IC50 is the point on the concentration scale where inhibition reaches its midpoint.

The record behind these values is patent US20130102619A1, “2-PYRIDYLOXY-4-NITRILE OREXIN RECEPTOR ANTAGONISTS” (priority 2011, published 2013).
